Test results taken from patent US20130231347A1, “METHOD OF TREATMENT WITH BRAF INHIBITOR” (GLAXOSMITHKLINE INTELLECTUAL PROPERTY (NO.2) LIMITED, priority 2010, published 2013).
Read-outs that look alike come from different tables or passages of the source.

Columns and labels:
[1] = system: 16R6-2 (A375 F11 clone with acquired resistance to Compound A); experiment: Cell growth inhibition assay (Cell Titer Glo, 3 days); type: cell-based; conditions: Homo sapiens, A-375, 72 h, MEK1 P387P/S, single agent
Description: (§1) A clonal isolate, hereinafter referred to as “A375 F11”, was obtained from the A375 cell line (obtained from ATCC), based on increased sensitivity to a BRAF inhibitor. A375 F11 cells were exposed to increasing concentrations of Compound A and maintained in a final concentration of 1.26 μM or 1.6 μM. 12R5-3, 12R8-1, 12R8-3, 16R5-5, 16R6-2, 16R6-3 and 16R6-4 were derived as single cell clones from mixed populations of these A375 F11 cells selected to grow in the presence of Compound A. All cells were grown in RPMI 1640 medium containing 10% Fetal Bovine Serum (FBS).
(§2) All cells were cultured without compound, e.g. Compound A, for a minimum of 72 hours prior to cell plating. Cells were assayed in a 96-well tissue culture plate (NUNC 136102) of RPMI medium containing 10% FBS for all cells at 1,000 cells per well. Approximately 24 hours after plating, cells were exposed to ten, three-fold serial dilutions of compound or the combination of the two agents at a constant molar to molar ratio, e.g. 10:1 Compound A to Compound B, in RPMI media containing 10% FBS. Cells were incubated in the presence of compounds for 3 days. ATP levels were determined by adding Cell Titer Glo® (Promega) according to the manufacturer's protocol. Briefly, Cell Titer Glo® was added each plate, incubated for 30 minutes then luminescent signal was read on the SpectraMax L plate reader with a 0.5 sec integration time. Inhibition of cell growth was estimated after treatment with compound or combination of compounds for three days and comparing the Cell Titer Glo® signal to cells treated with vehicle (DMSO). Cell growth was calculated relative to vehicle (DMSO) treated control wells.
(§3) For single agent and combination treatments, cells were exposed to compounds at a fixed-dose-ratio, and dose response curves were fit to the experimental data and analyzed using regression models.

A375 F11 cells = experiment: as above; type: cell-based; conditions: Homo sapiens, 72 h, MEK1 WT, single agent
Description: as §1, §2, §3

[2] = system: 12R5-3 (A375 F11 clone with acquired resistance to Compound A); experiment: as above; type: cell-based; conditions: Homo sapiens, A-375, 72 h, MEK1 WT, single agent
Description: as §1, §2, §3

[3] = system: 16R5-5 (A375 F11 clone with acquired resistance to Compound A); experiment: as above; type: cell-based; conditions: Homo sapiens, A-375, 72 h, MEK1 P387P/S, single agent
Description: as §1, §2, §3

[4] = system: 16R6-3 (A375 F11 clone with acquired resistance to Compound A); experiment: as above; type: cell-based; conditions: Homo sapiens, A-375, 72 h, MEK1 P387P/S, single agent
Description: as §1, §2, §3

[5] = system: 12R8-1 (A375 F11 clone with acquired resistance to Compound A); experiment: as above; type: cell-based; conditions: Homo sapiens, A-375, 72 h, MEK1 WT, single agent
Description: as §1, §2, §3

[6] = system: A375 F11 clones that acquired resistance to Compound A; experiment: Cell growth inhibition assay, resistant A375 clones taken together; conditions: Homo sapiens
Description: as §1, §2, §3

[7] = system: 12R5-1 (A375 F11 clone with acquired resistance to Compound A); experiment: Cell growth inhibition assay (Cell Titer Glo, 3 days); type: cell-based; conditions: Homo sapiens, A-375, 72 h, MEK1 HET 59delK, single agent
Description: as §1, §2, §3

[8] = system: 12R8-3 (A375 F11 clone with acquired resistance to Compound A); experiment: as above; type: cell-based; conditions: Homo sapiens, A-375, 72 h, MEK1 WT, single agent
Description: as §1, §2, §3

[9] = system: YUSIT1 clones that acquired resistance to Compound A (BRAF V600K); experiment: Cell growth inhibition assay, resistant YUSIT1 clones; type: cell-based, human; conditions: YUSIT1 clones resistant to Compound A
From the text: The YUSIT1 melanoma cells were obtained from Yale Dermatology Cell Culture Facility.

[10] = system: 12R9 (A375 F11 line with acquired resistance to Compound A); experiment: Cell growth inhibition assay (Cell Titer Glo, 3 days); type: cell-based; conditions: Homo sapiens, A-375, 72 h, Table 3, 12R9: NRAS Q61Q/R, MEK1 ND, single agent
Description: as §1
All cells were cultured without compound, e.g. Compound A, for a minimum of 72 hours prior to cell plating. Cells were assayed in a 96-well tissue culture plate (NUNC 136102) of RPMI medium containing 10% FBS for all cells at 1,000 cells per well. […] ATP levels were determined by adding Cell Titer Glo® (Promega) according to the manufacturer's protocol. Briefly, Cell Titer Glo® was added each plate, incubated for 30 minutes then luminescent signal was read on the SpectraMax L plate reader with a 0.5 sec integration time. […] Cell growth was calculated relative to vehicle (DMSO) treated control wells.
as §3

[11] = system: 16R6-4 (A375 F11 clone with acquired resistance to Compound A); experiment: as above; type: cell-based; conditions: Homo sapiens, A-375, 72 h, A146A/T, MEK1 P387P/S, single agent
Description: as §1, §2, §3

[12] = system: 12R5-5 (A375 F11 clone with acquired resistance to Compound A); experiment: as above; type: cell-based; conditions: Homo sapiens, A-375, 72 h, MEK1 HET 59delK, single agent
Description: as §1, §2, §3

CC(=O)Nc1cccc(-n2c(=O)n(C3CC3)c(=O)c3c(Nc4ccc(I)cc4F)n(C)c(=O)c(C)c32)c1 [Compound B, N-{3-[3-cyclopropyl-5-(2-fluoro-4-iodo-phenylamino)-6,8-dimethyl-2,4,7-trioxo-3,4,6,7-tetrahydro-2H-pyrido[4,3-d]pyrimidin-1-yl]phenyl}acetamide]
IC50 ([1]; 16R6-2: NRAS Q61Q/K, read-out: IC50, Single Agent Effect, Compound B): 0.099 ± 0.058 µM | IC50 ([1]; Table 3, 16R6-2: NRAS Q61Q/K, read-out: IC50, Single Agent, Compound B): 0.339 ± 0.366 µM | IC50 (A375 F11 cells; F11: NRAS WT, mean ± std, read-out: IC50, Single Agent Effect, Compound B): 0.002 ± 0.002 µM | IC50 (A375 F11 cells; Table 3, F11: NRAS WT, read-out: IC50, Single Agent, Compound B): 0.006 ± 0.004 µM | IC50 ([2]; 12R5-3: NRAS A146A/T, read-out: IC50, Single Agent Effect, Compound B): 0.078 ± 0.029 µM | IC50 ([2]; Table 3, 12R5-3: NRAS A146A/T, read-out: IC50, Single Agent, Compound B): 0.132 ± 0.054 µM | IC50 ([3]; 16R5-5: NRAS Q61Q/K, read-out: IC50, Single Agent Effect, Compound B): 0.129 ± 0.054 µM | IC50 ([3]; Table 3, 16R5-5: NRAS Q61Q/K, read-out: IC50, Single Agent, Compound B): 0.097 µM | IC50 ([4]; 16R6-3: NRAS A146A/T, read-out: IC50, Single Agent Effect, Compound B): 0.162 ± 0.067 µM | IC50 ([4]; Table 3, 16R6-3: NRAS A146A/T, read-out: IC50, Single Agent, Compound B): 0.137 ± 0.077 µM | IC50 ([5]; 12R8-1: NRAS A146A/T, read-out: IC50, Single Agent Effect, Compound B): 0.081 ± 0.031 µM | IC50 ([5]; Table 3, 12R8-1: NRAS A146A/T, read-out: IC50, Single Agent, Compound B): 0.056 ± 0.039 µM | IC50 ([6]; A-375, read-out: IC50 of the combination, for Compound B): 0.018 to 0.039 µM | IC50 ([7]; 12R5-1: NRAS WT, read-out: IC50, Single Agent Effect, Compound B): > 1 µM | IC50 ([7]; Table 3, 12R5-1: NRAS WT, read-out: IC50, Single Agent, Compound B): > 1 µM | IC50 ([8]; 12R8-3: NRAS A146A/T, read-out: IC50, Single Agent Effect, Compound B): 0.059 ± 0.037 µM | IC50 ([8]; Table 3, 12R8-3: NRAS A146A/T, n = 1, read-out: IC50, Single Agent, Compound B): 0.084 µM | IC50 ([9]; Homo sapiens, single agent, read-out: IC50, cell growth inhibition): 0.002 to 0.005 µM | reduced sensitivity compared to the parental YUSIT1 cells ([9]; single agent (FIG. 9)): 3-7 fold | IC50 ([10]; n = 1, read-out: IC50, Single Agent, Compound B): 0.024 µM | IC50 ([11]; 16R6-4: NRAS Q61Q/K, read-out: IC50, Single Agent Effect, Compound B): > 1 µM | IC50 ([11]; Table 3, 16R6-4: NRAS Q61Q/K, read-out: IC50, Single Agent, Compound B): 0.475 ± 0.587 µM | IC50 ([12]; 12R5-5: NRAS WT, read-out: IC50, Single Agent Effect, Compound B): > 1 µM | IC50 ([12]; Table 3, 12R5-5: NRAS WT, read-out: IC50, Single Agent, Compound B): 0.315 ± 0.212 µM

COc1ncc(-c2ccc3nccc(-c4ccnnc4)c3c2)cc1NS(=O)(=O)c1ccc(F)cc1F [Compound C, 2,4-difluoro-N-{2-(methyloxy)-5-[4-(4-pyridazinyl)-6-quinolinyl]-3-pyridinyl}benzenesulfonamide]
IC50 ([1]; Table 3, 16R6-2: NRAS Q61Q/K, read-out: IC50, Single Agent, Compound C): 0.111 ± 0.087 µM | IC50 (A375 F11 cells; Table 3, F11: NRAS WT, read-out: IC50, Single Agent, Compound C): 0.098 ± 0.058 µM | IC50 ([2]; Table 3, 12R5-3: NRAS A146A/T, read-out: IC50, Single Agent, Compound C): 0.159 ± 0.14 µM | IC50 ([3]; Table 3, 16R5-5: NRAS Q61Q/K, read-out: IC50, Single Agent, Compound C): 0.091 ± 0.036 µM | IC50 ([4]; Table 3, 16R6-3: NRAS A146A/T, read-out: IC50, Single Agent, Compound C): 0.162 ± 0.099 µM | IC50 ([5]; Table 3, 12R8-1: NRAS A146A/T, read-out: IC50, Single Agent, Compound C): 0.145 ± 0.047 µM | IC50 ([7]; Table 3, 12R5-1: NRAS WT, read-out: IC50, Single Agent, Compound C): 0.155 ± 0.13 µM | IC50 ([8]; Table 3, 12R8-3: NRAS A146A/T, n = 1, read-out: IC50, Single Agent, Compound C): 0.375 µM | IC50 ([10]; n = 1, read-out: IC50, Single Agent, Compound C): 0.057 µM | IC50 ([11]; Table 3, 16R6-4: NRAS Q61Q/K, read-out: IC50, Single Agent, Compound C): 0.213 ± 0.169 µM | IC50 ([12]; Table 3, 12R5-5: NRAS WT, read-out: IC50, Single Agent, Compound C): 0.087 ± 0.001 µM

CCCS(=O)(=O)Nc1ccc(F)c(C(=O)c2c[nH]c3ncc(-c4ccc(Cl)cc4)cc23)c1F [PLX4032, reference compound]
IC50 ([6]; A-375, read-out: IC50, cell growth): > 10 µM
